Measured values taken from patent publication US11873295B2, “Allosteric chromenone inhibitors of phosphoinositide 3-kinase (PI3K) for the treatment of disease” (Petra Pharma Corporation, priority 2021, dated 2024).

Key:
[1] = biological target: T1, human full length PIK3KA Wild-type (p110α/p85α complex) (Homo sapiens, UniProt P42336); experiment: PI3K-alpha kinase (PIK3CA) biochemical activity, wild-type, ADP-Glo; conditions: PI3K-α (PIK3CA) biochemical, Soy PI lipid substrate
T1 construct: Recombinant, catalytically active human full length PIK3KA Wild-type and H1047R mutant were purchased as 1:1 complex; 6xHis (N); purchased EMD Millipore Sigma 14-602M
Source text: (§1) PI3K-Alpha Kinase (PIK3CA) Activity, Wild-Type and H1047R Mutant and Determining IC50 Values for Inhibitors
(§2) Recombinant, catalytically active human full length PIK3KA Wild-type and H1047R mutant were purchased as 1:1 complex of N-terminal 6× his tagged p110α (catalytic) and untagged p85α (regulatory subunit) from EMD Millipore Sigma (cat. no. 14-602M and 14-792M, respectively). PIP2diC8 (Avanti Polar Lipids Inc., cat. no. 850185) or Soy PI (Avanti Polar Lipids Inc., cat. No. 840044P) was used as lipid substrate. PIP2diC8 or PI lyophilized powder was dissolved in milliQ water to a concentration of 1 mM just before use. 10 mM stock compounds in DMSO were serially diluted 1:3 to generate a 10-point curve and plated using an acoustic liquid handler system (Echo 550 series instrument, Labcyte). A 10× intermediate compound plate (200 uM starting compound concentration and 10% DMSO) was prepared before starting the reaction. A typical reaction mixture (50 uL) comprised 40 mM HEPES buffer, pH 7.4, 25 mM MgCl2, 0.01% v/v triton-X-100, 1% v/v DMSO, 20 mM NaCl, 1-5 nM WT or H1047R PI3K protein, 20 uM ATP, and 50 uM PIP2diC8 or Soy PI. 1% DMSO buffer alone without test compound was employed as MAX control (full activity in the absence of any inhibitor), and no enzyme control was used to determine the level of background Adenosine 5′-diphosphate (ADP) (MIN control). First, Wild-type (WT) and H1047R mutant protein in kinase buffer with all components except ATP were incubated with or without compound at 27° C. for 1 h. After the pre-incubation, the reaction was initiated by the addition of 20 uL of 50 uM ATP (20 uM final concentration). The reaction was allowed to proceed until about 10% conversion of ATP (2 uM ADP) at 27° C. After that time, 5 uL of reaction was mixed with 5 uL of ADP-Kinase Glo Reagent (ADP-Glo Kinase assay kit, Promega cat. no. V9102) supplemented with MgCl2 10 mM to stop the reaction and deplete the remaining ATP for 40 min at room temperature. Then, 10 uL of Kinase Detection Reagent (ADP-Glo Kinase assay kit, Promega cat. no. V9102) was added to simultaneously convert ADP to ATP and allow the newly synthesized ATP to be measured using a luciferase/luciferin reaction. After 30 min at room temperature the light generated was measured using a luminometer (EnVision plate reader, Perkin Elmer). Process data through Genedata-Screener tool. Relative IC50 values are determined using luminescence units by calculating percent inhibition with respect to on-plate “MIN” and “MAX” controls. Data was analyzed using a 4-parameter nonlinear logistic equation (four-parameter logistic concentration-response curve): Y=bot+[(top−bot)/1+(x/IC50)slope] where Y=% inhibition, X=concentration yielding y % inhibition, Bottom=minimum value of y attained by curve, Top=maximum value of y attained by curve and Slope=steepness of curve at IC50. % Inh=[(median Max−x/median Max−median Min)]·100 IC50: concentration of compound that reduces a given response (ligand binding, enzyme response) by 50%. IC50 relative: concentration giving half the compound's maximum response.
(§3) For IC50 values shown in Table A, “A” means IC50<0.5 μM; “B” means IC50 ranging between 0.5 μM and 1.0 μM; “C” means IC50 ranging between 1 μM and 5 μM; “D” means IC50 ranging between 5 μM and 10 μM; “E” means IC50>10 μM.

[2] = biological target: T2, human full length PIK3KA H1047R mutant (p110α/p85α complex) (Homo sapiens, UniProt P42336, H1047R); experiment: PI3K-alpha kinase (PIK3CA) biochemical activity, H1047R mutant, ADP-Glo; conditions: PI3K-α (PIK3CA) biochemical, H1047R mutant, Soy PI lipid substrate
T2 construct: Recombinant, catalytically active human full length PIK3KA Wild-type and H1047R mutant were purchased as 1:1 complex; 6xHis (N); purchased EMD Millipore Sigma 14-792M
Source text: as §1, §2, §3

T2 sequence (P42336 whole entry H1047R): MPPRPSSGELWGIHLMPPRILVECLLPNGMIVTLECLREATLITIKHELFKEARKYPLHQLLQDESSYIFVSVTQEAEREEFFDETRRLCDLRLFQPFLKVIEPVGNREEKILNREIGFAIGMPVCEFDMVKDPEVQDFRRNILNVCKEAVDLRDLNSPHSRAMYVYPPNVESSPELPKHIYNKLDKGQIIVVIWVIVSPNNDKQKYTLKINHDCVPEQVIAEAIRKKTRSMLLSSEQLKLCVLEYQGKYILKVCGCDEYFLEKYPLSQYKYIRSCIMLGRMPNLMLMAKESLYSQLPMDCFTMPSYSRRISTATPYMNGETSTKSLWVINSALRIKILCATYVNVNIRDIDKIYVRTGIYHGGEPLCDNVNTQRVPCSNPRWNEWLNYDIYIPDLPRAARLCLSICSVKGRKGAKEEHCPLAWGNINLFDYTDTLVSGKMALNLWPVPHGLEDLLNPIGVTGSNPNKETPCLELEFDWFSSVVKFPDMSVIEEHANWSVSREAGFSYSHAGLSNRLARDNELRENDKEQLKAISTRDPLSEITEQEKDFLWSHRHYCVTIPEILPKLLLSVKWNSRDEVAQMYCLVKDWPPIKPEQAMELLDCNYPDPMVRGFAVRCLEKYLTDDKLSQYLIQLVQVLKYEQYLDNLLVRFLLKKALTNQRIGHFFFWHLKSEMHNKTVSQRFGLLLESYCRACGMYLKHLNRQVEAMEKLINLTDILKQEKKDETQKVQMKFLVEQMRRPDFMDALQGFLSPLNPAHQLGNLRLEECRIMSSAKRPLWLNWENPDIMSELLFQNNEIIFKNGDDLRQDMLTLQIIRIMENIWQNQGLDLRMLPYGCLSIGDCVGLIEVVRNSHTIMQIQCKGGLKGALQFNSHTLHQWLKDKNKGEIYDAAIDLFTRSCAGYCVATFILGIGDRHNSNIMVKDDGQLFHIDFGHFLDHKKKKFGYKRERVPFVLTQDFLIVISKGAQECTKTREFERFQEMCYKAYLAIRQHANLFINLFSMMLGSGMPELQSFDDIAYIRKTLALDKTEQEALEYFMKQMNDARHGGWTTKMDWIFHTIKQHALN
T2 sequence (P27986 whole entry partner): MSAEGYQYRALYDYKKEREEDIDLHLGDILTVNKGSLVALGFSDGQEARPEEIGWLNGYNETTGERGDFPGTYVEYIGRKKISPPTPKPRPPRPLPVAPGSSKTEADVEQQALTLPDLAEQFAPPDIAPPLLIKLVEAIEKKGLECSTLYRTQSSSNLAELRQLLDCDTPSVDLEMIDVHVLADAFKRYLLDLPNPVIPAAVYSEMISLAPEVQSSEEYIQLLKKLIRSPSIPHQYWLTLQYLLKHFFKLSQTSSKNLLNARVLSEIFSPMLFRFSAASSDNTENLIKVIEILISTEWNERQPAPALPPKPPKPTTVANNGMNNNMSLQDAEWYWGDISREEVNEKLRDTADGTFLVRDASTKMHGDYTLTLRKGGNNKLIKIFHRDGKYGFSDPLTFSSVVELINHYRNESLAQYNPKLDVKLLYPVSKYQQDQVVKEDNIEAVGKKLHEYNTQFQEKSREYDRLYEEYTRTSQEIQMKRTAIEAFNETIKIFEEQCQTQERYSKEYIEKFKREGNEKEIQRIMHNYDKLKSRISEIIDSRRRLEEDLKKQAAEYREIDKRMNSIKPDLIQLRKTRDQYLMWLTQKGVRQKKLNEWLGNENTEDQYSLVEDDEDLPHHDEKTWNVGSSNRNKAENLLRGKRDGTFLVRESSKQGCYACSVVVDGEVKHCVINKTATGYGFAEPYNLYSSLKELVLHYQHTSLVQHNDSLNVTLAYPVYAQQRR

SMILES | IC50 [1] | IC50 [2]
Cc1cc([C@@H](C)Nc2cncnc2C(=O)O)c2oc(-c3ccccc3)c(C)c(=O)c2c1 [Example 74, 5-[[(1R)-1-(3,6-Dimethyl-4-oxo-2-phenyl-chromen-8-yl)ethyl]amino]pyrimidine-4-carboxylic acid] | > 10 µM | < 500 nM
Cc1cc([C@@H](C)Nc2ccc(Br)cc2C(=O)O)c2oc(-c3ccccc3)c(C)c(=O)c2c1 [Example 77, 5-Bromo-2-[[(1R)-1-(3,6-dimethyl-4-oxo-2-phenyl-chromen-8-yl)ethyl]amino]benzoic acid] | 1 to 5 µM | < 500 nM
Cc1cc([C@@H](C)Nc2ccccc2C(=O)O)c2oc(-c3ccccc3)c(I)c(=O)c2c1 [Example 79, 2-[[(1R)-1-(3-Iodo-6-methyl-4-oxo-2-phenyl-chromen-8-yl)ethyl]amino]benzoic acid 2,2,2-trifluoroacetic acid] | 0.5 to 1 µM | < 500 nM
C[C@@H](Nc1ccccc1C(=O)O)c1cc(F)cc2c(=O)cc(-c3cccc(C(F)F)c3)oc12 [Example 80, 2-[[(1R)-1-[2-[3-(Difluoromethyl)phenyl]-6-fluoro-4-oxo-chromen-8-yl]ethyl]amino]benzoic acid 2,2,2-trifluoroacetic acid] | 5 to 10 µM | < 500 nM
C[C@@H](Nc1ccc(Cl)nc1C(=O)O)c1cc(C(F)(F)F)cc2c(=O)cc(-c3ccccc3)oc12 [Example 82, 6-Chloro-3-[[(1R)-1-[4-oxo-2-phenyl-6-(trifluoromethyl)-chromen-8-yl]ethyl]amino]pyridine-2-carboxylic acid] | 1 to 5 µM | < 500 nM
Cc1c(-c2cccc(C(F)F)c2)oc2c([C@@H](C)Nc3ccccc3C(=O)O)cc(F)cc2c1=O [Example 83, 2-[[(1R)-1-[2-[3-(Difluoromethyl)phenyl]-6-fluoro-3-methyl-4-oxo-chromen-8-yl]ethyl]amino]benzoic acid 2,2,2-trifluoroacetic acid] | 5 to 10 µM | < 500 nM
COc1ccc(NC(C)c2cc(C)cc3c(=O)c(C)c(-c4ccccc4)oc23)c(C(=O)O)n1 (stereo not shown) [Example 89, 3-[1-(3,6-Dimethyl-4-oxo-2-phenyl-chromen-8-yl)ethylamino]-6-methoxy-pyridine-2-carboxylic acid 2,2,2-trifluoroacetic acid] | 1 to 5 µM | < 500 nM

Other lines, results leading:

IC50 [1] | IC50 [2] | SMILES
5 to 10 µM | < 500 nM | C[C@@H](Nc1ccccc1C(=O)O)c1cc(C(F)(F)F)cc2c(=O)cc(-c3ccc(F)cc3F)oc12 [Example 90, 2-[[(1R)-1-[2-(2,4-Difluorophenyl)-4-oxo-6-(trifluoromethyl)-chromen-8-yl]ethyl]amino]benzoic acid]
1 to 5 µM | < 500 nM | Cc1cc(C(C)Nc2cccc(F)c2C(=O)O)c2oc(-c3ccccc3F)cc(=O)c2c1 (stereo not shown) [Example 97, 2-Fluoro-6-[1-[2-(2-fluorophenyl)-6-methyl-4-oxo-chromen-8-yl]ethylamino]benzoic acid 2,2,2-trifluoroacetic acid]
0.5 to 1 µM | < 500 nM | Cc1c(-c2cccc(C#N)c2)oc2c([C@@H](C)Nc3ccc(Cl)nc3C(=O)O)cc(C(F)(F)F)cc2c1=O [Example 100, 6-Chloro-3-[[(1R)-1-[2-(3-cyanophenyl)-3-methyl-4-oxo-6-(trifluoromethyl)-chromen-8-yl]ethyl]amino]pyridine-2-carboxylic acid]
< 0.5 µM | < 500 nM | Cc1cc([C@@H](C)Nc2ccc(Cl)nc2C(=O)O)c2oc(-c3ccccc3)c(C(F)(F)F)c(=O)c2c1 [Example 139, 6-Chloro-3-[[(1R)-1-[6-methyl-4-oxo-2-phenyl-3-(trifluoromethyl)-chromen-8-yl]ethyl]amino]pyridine-2-carboxylic acid 2,2,2-trifluoroacetic acid]
